Where a name gives a salt, the structure may show the parent alone.
Molecular target: T1, human liver glycogen phosphorylase a (HLGPa) (Homo sapiens, UniProt P06737)
T1 construct: creating a full-length cDNA fused at the 5′ end to codons for methionine-glycine-alanine-histidine; 6xHis tag (leader Met-Gly-Ala-His6-Gly-Gly) (N); made in house; host or cells: E. coli (bacterial expression plasmid pTXK1007LTev)
T1 sequence (P06737 2-847 limits assumed): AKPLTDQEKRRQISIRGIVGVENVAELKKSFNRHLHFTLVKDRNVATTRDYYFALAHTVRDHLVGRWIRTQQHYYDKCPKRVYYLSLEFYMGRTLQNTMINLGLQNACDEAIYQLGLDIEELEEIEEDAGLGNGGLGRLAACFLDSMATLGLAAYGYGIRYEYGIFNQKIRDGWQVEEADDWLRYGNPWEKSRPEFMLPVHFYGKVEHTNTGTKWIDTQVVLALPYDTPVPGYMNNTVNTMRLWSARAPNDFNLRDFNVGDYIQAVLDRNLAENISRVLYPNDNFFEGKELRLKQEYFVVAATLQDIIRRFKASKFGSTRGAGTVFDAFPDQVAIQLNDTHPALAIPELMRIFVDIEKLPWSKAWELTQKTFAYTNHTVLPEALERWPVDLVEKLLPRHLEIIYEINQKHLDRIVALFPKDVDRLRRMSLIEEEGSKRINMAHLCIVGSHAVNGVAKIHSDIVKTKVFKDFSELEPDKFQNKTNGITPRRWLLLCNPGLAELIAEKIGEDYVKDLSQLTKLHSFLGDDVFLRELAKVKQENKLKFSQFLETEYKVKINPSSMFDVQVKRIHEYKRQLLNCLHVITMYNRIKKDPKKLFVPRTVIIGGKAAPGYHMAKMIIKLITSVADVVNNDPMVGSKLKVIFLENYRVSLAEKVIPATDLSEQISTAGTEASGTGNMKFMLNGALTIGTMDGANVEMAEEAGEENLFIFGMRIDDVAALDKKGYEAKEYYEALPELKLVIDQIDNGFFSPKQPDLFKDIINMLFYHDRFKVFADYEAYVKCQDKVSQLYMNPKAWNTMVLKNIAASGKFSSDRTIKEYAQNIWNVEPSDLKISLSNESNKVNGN
Assay: Human liver glycogen phosphorylase a enzymatic activity assay (coupled, fluorescent resorufin readout, with and without 10 mM glucose)
Assay type: biochemical

[1] = human liver glycogen phosphorylase a enzymatic activity assay
[2] = human liver glycogen phosphorylase a, table does not say whether with or without 10 mM glucose

Row | IC50 [1] | IC50 [2] | SMILES
1 | 740 nM | – | Cc1cc(C)c(NC(=O)Nc2sc(-c3ccc(OC(F)(F)F)cc3)cc2C(=O)O)c(C)c1 [Example 430, 5-{4-[(trifluoromethyl)oxy]phenyl}-2-({[(2,4,6-trimethylphenyl)amino]carbonyl}amino)-3-thiophenecarboxylic acid]
2 | 89 nM | – | Cc1cc(C)c(NC(=O)Nc2cc3ccccc3cc2C(=O)N[C@@H](CCNC(=O)OC(C)(C)C)C(=O)O)c(C)c1 [Example 516, (2S)-4-({[(1,1-dimethylethyl)oxy]carbonyl}amino)-2-({[3-({[(2,4,6-trimethylphenyl)amino]carbonyl}amino)-2-naphthalenyl]carbonyl}amino)butanoic acid]
3 | – | 3420 nM | COc1ccc(-c2ccc(C(=O)O)c(NC(=O)Nc3c(Cl)cc(OC(F)(F)F)cc3Cl)c2)cc1 [Example 381, 3-{[({2,6-dichloro-4-[(trifluoromethyl)oxy]phenyl}amino)carbonyl]amino}-4′-(methyloxy)-4-biphenylcarboxylic acid]
4 | – | 45 nM | Cc1cc(C)c(NC(=O)Nc2cc3ccccc3cc2C(=O)N[C@@H](COC2CCOCC2)C(=O)O)c(C)c1 [Example 276, O-(tetrahydro-2H-pyran-4-yl)-N-{[3-({[(2,4,6-trimethylphenyl)amino]carbonyl}amino)-2-naphthalenyl]carbonyl}-L-serine]
5 | 9860 nM | – | COC(=O)CCNC(=O)c1cc2ccccc2cc1NC(=O)Nc1c(C)cc(C)cc1C [Example 493, methyl N-{[3-({[(2,4,6-trimethylphenyl)amino]carbonyl}amino)-2-naphthalenyl]carbonyl}-beta-alaninate]
6 | 160 nM | – | Cc1cc(C)c(NC(=O)Nc2cc(F)ccc2C(=O)N[C@@](C)(C(=O)O)C2CCCCC2)c(C)c1 [Example 472, 2-cyclohexyl-N-{[4-fluoro-2-({[(2,4,6-trimethylphenyl)amino]carbonyl}amino)phenyl]carbonyl}-L-alanine]
7 | – | 13500 nM | COC(=O)[C@H](CC(=O)OC(C)(C)C)NC(=O)c1ccc(-c2ccc(OC)cc2)cc1NC(=O)Nc1c(C)cc(C)cc1C [Example 371, 4-(1,1-dimethylethyl) 1-methyl N-{[4′-(methyloxy)-3-({[(2,4,6-trimethylphenyl)amino]carbonyl}amino)-4-biphenylyl]carbonyl}-L-aspartate]
8 | – | 1240 nM | CCCC(=O)N1CCC(NC(=O)c2cc3ccccc3cc2NC(=O)Nc2c(C)cc(C)cc2C)(C(=O)O)CC1 [Example 290, 1-Butanoyl-4-({[3-({[(2,4,6-trimethylphenyl)amino]carbonyl}amino)-2-naphthalenyl]carbonyl}amino)-4-piperidinecarboxylic acid]
9 | – | 2370 nM | Cc1cc(C)c(NC(=O)Nc2cc3ccccc3cc2C(=O)NC(C(=O)O)C2CCC(N)CC2)c(C)c1 (mixture of isomers) [Example 351, (cis and trans)-(4-aminocyclohexyl)({[3-({[(2,4,6-trimethylphenyl)amino]carbonyl}amino)-2-naphthalenyl]carbonyl}amino)acetic acid trifluoroacetate]
10 | – | 5580 nM | CCOC(=O)C[C@H](NC(=O)c1ccc(-c2ccc(OC)cc2)cc1NC(=O)Nc1c(C)cc(Br)cc1C)C(=O)OCc1ccccc1 [Example 368, 4-ethyl 1-(phenylmethyl) N-{[3-({[(4-bromo-2,6-dimethylphenyl)amino]carbonyl}amino)-4′-(methyloxy)-4-biphenylyl]carbonyl}-L-aspartate]
11 | – | 210 nM | Cc1cc(C)c(NC(=O)Nc2cc3ccccc3cc2C(=O)N[C@@](C)(CC(C)C)C(=O)O)c(C)c1 [Example 269, 2-methyl-N-{[3-({[(2,4,6-trimethylphenyl)amino]carbonyl}amino)-2-naphthalenyl]carbonyl}leucine]
12 | 1960 nM | – | Cc1cccc(C)c1NC(=O)Nc1cc2ccccc2cc1C(=O)N[C@H](C(=O)O)C(C)C [Example 21, N-[3-({[(2,6-dimethylphenyl)amino]carbonyl}amino)-2-naphthoyl]-L-valine]

The next lines start with the molecule.

Row | SMILES | IC50 [1] | IC50 [2]
13 | Cc1ccc(NC(=O)Nc2c(C)cccc2C)c(C(=O)N[C@H](C(=O)O)C2CCCCC2)c1 [Example 169, (2S)Cyclohexyl({[2({[(2,6dimethylphenyl)amino]carbonyl}amino)-5-methylphenyl]carbonyl}amino)ethanoic acid] | 680 nM | –
14 | Cc1cccc(C)c1NC(=O)Nc1cc(Cl)ccc1C(=O)NCC(=O)O [Example 170, N{[4chloro2({[(2,6dimethylphenyl)amino]carbonyl}amino)phenyl]carbonyl}glycine] | 2910 nM | –
15 | O=C(Nc1cc(-c2ccc(F)c(F)c2)ccc1C(=O)N[C@H](C(=O)O)C1CCCCC1)Nc1c(Cl)cc(OC(F)(F)F)cc1Cl [Example 212, (2S)-Cyclohexyl{[(3-{[({2,6-dichloro-4-[(trifluoromethyl)oxy]phenyl}amino)carbonyl]amino}-3′,4′-difluoro-4-biphenylyl)carbonyl]amino}ethanoic acid] | – | 17 nM
16 | O=C(Nc1sc(-c2ccccc2)cc1C(=O)N[C@H](C(=O)O)C1CCCCC1)Nc1c(Cl)cccc1Cl [Example 384, (2S)-cyclohexyl({[2-({[(2,6-dichlorophenyl)amino]carbonyl}amino)-5-phenyl-3-thienyl]carbonyl}amino)ethanoic acid] | – | 230 nM
17 | COc1ccc(-c2cc(C(=O)O)c(NC(=O)Nc3c(Cl)cccc3Cl)s2)cc1 [Example 412, 2-({[(2,6-dichlorophenyl)amino]carbonyl}amino)-5-[4-(methyloxy)phenyl]-3-thiophenecarboxylic acid] | 1040 nM | –
18 | Cc1cccc(C)c1NC(=O)Nc1cc2ccccc2cc1C(=O)N1CCC[C@H]1C(=O)O [Example 334, 1-{[3-({[(2,6-dimethylphenyl)amino]carbonyl}amino)-2-naphthalenyl]carbonyl}-L-proline] | – | 420 nM
19 | Cc1cc(F)ccc1-c1cc(C(=O)O)c(NC(=O)Nc2c(Cl)cccc2Cl)s1 [Example 420, 2-({[(2,6-dichlorophenyl)amino]carbonyl}amino)-5-(4-fluoro-2-methylphenyl)-3-thiophenecarboxylic acid] | 5640 nM | –
20 | Cc1cccc(Cl)c1NC(=O)Nc1cc2ccccc2cc1C(=O)N[C@@H](CCCCN)C(=O)O [Example 59, N-[3-({[(2-chloro-6-methylphenyl)amino]carbonyl}amino)-2-naphthoyl]-L-lysine trifluoroacetate] | 2990 nM | –
21 | CC[C@H](C)[C@H](NC(=O)c1cc2ccccc2cc1NC(=O)Nc1ccccc1C)C(=O)O [Example 15, N-[3-({[(2-methylphenyl)amino]carbonyl}amino)-2-naphthoyl]-L-isoleucine] | 11000 nM | –
22 | Cc1cccc(C)c1NC(=O)Nc1cc(C(F)(F)F)ccc1C(=O)N[C@H](C(=O)O)C1CCCCC1 [Example 178, (2S)-cyclohexyl({[2-({[(2,6-dimethylphenyl)amino]carbonyl}amino)-4-(trifluoromethyl)phenyl]carbonyl}amino)ethanoic acid] | 2330 nM | –
23 | O=C(Nc1cc(F)ccc1C(=O)N[C@H](C(=O)O)C1CCCCC1)Nc1c(Cl)cc(OC(F)(F)F)cc1Cl [Example 208, (2S)-Cyclohexyl{[(2-{[({2,6-dichloro-4-[(trifluoromethyl)oxy]phenyl}amino)carbonyl]amino}-4-fluorophenyl)carbonyl]amino}ethanoic acid] | – | 130 nM
24 | CCCc1cc(C)c(NC(=O)Nc2cc(F)ccc2C(=O)N[C@@](C)(C(=O)O)C2CCCCC2)c(C)c1 [Example 479, 2-cyclohexyl-N-{[2-({[(2,6-dimethyl-4-propylphenyl)amino]carbonyl}amino)-4-fluorophenyl]carbonyl}-L-alanine] | 4 nM | –
25 | COC(=O)[C@@H](NC(=O)c1sc(-c2cccnc2)cc1NC(=O)Nc1c(Cl)cccc1Cl)C1CCCCC1 [Example 404, methyl(2S)-cyclohexyl({[3-({[(2,6-dichlorophenyl)amino]carbonyl}amino)-5-(3-pyridinyl)-2-thienyl]carbonyl}amino)ethanoate] | 13200 nM | –
26 | Cc1cccc(Cl)c1NC(=O)Nc1sc2c(c1C(=O)N[C@H](C(=O)O)C1CCCCC1)CCCC2 [Example 139, (2S)-({[2-({[(2-chloro-6-methylphenyl)amino]carbonyl}amino)-4,5,6,7-tetrahydro-1-benzothien-3-yl]carbonyl}amino)(cyclohexyl)acetic acid] | 3260 nM | –
27 | O=C(Cc1c(Cl)cc(Cl)cc1Cl)Nc1cc2ccccc2cc1C(=O)N[C@H](C(=O)O)C1CCCCC1 [Example 162, (2S)-cyclohexyl[(3-{[(2,4,6-trichlorophenyl)acetyl]amino}-2-naphthoyl)amino]ethanoic acid] | 46 nM | –
28 | Cc1cccc(C)c1NC(=O)Nc1cc2ccccc2cc1C(=O)NCCCC(=O)O [Example 492, 4-({[3-({[(2,6-dimethylphenyl)amino]carbonyl}amino)-2-naphthalenyl]carbonyl}amino)butanoic acid] | 7520 nM | –

Reference: US20070249670A1, “Glycogen Phosphorylase Inhibitor Compounds and Pharmaceutical Compositions Thereof” (SMITHKLINE BEECHAM CORPORATION, priority 2004, published 2007)
